Several values for one entry are separate records, joined by “and”; a condition that tells them apart may be missing. Equal values may be shown once.
Columns and labels:
BALB/C mice = experiment: In vivo imaging of Fluc-mRNA expression in mice delivered by LNP formulations; settings: LNP containing 10 pg Fluc-mRNA, intramuscular, female BALB/C mice
Protocol: The LNP formulation containing […] Fluc-mRNA was injected intramuscularly into female BALB/C mice aged 4-6 weeks old and weighed 17-19 g, and the mice were intraperitoneally injected with fluorescent imaging substrate at specific time points after administration (6h, 24 h, 48h and 7d), where the mice were allowed to move freely for 5 minutes, and then the average radiation intensity (corresponding to fluorescence expression intensity) of the protein expression of the mRNA carried by the LNP in the mice was detected by the IVIS Spectrum small animal in vivo imaging device. The test results are shown in Tables 11 to 14 and FIGS. 12 to 14.

293T cells [1] = experiment: Fluorescent detection of Fluc-mRNA (cell transfection efficiency of LNP formulations); type: cell-based; settings: for Relative light unit (RLU): LNP formulation containing 0.3 μg Fluc-mRNA, 96-well plate, 24 hours; for Multiples (YK-101): RLU of YK-101 / RLU of named substance; for Multiples (YK-107): RLU of YK-107 / RLU of named substance; for Multiples (YK-108): RLU of YK-108 / RLU of named substance; for Ratio relative to SM-102: RLU of named substance / RLU of SM-102; for fluorescence absorption value, times that of HHMA: RLU of named substance / RLU of HHMA; for fluorescence absorption value, times that of Lipofectamine 3000: RLU of named substance / RLU of Lipofectamine 3000; for Fluc-mRNA expression signal intensity, times that of compound 21: RLU of named substance / RLU of compound 21; for fluorescence absorption value, times that of compound 23: RLU of named substance / RLU of compound 23
Protocol: (§1) Cell recovery and passage: 293T cells were recovered, cultured in a culture dish, and passaged to the required number of cells.
(§2) Seeding plate: The cells in the culture dish were digested and counted. Cells were spread in a 96-well plate at 10,000 cells per well and in a 12-well plate at 150,000 cells per well. Cells were cultured overnight until the cells adhered to the wall.
Cell recovery and passage: the method was the same as in Example 3.
Seeding plate: the method was the same as in Example 3.
An LNP formulation containing 0.3 μg of Fluc-mRNA (the carrier components of the LNP formulation were cationic lipid, neutral lipid, structured lipid and polymer-conjugated lipid with a molar ratio of 49:10:39.5:1.5, wherein the cationic lipid was listed in Table 1) was added to the cell culture medium of a 96-well plate, and further incubated for 24 hours. The corresponding reagent was added according to the instructions of the Gaussia Luciferase Assay Kit, and the fluorescence expression intensity of each well was detected by an IVIS fluorescence detection system. This test verified the transfection efficiencies of LNP formulations in cells, see Tables 3-6 for specific test results.

293T cells [2] = experiment: Cell survival rate determination (CCK-8); type: cell-based; settings: for Cell survival rate (%): LNP formulation containing 1.5 μg Fluc-mRNA, 24 hours, CCK-8, absorbance at 450 nm; for cell survival rate lower than that of YK-101: cell survival rate of YK-101 minus that of named substance; for cell survival rate lower than that of YK-107: cell survival rate of YK-107 minus that of named substance; for cell survival rate lower than that of YK-108: cell survival rate of YK-108 minus that of named substance
Protocol: as §1, §2
An LNP formulation containing 1.5 μg of Fluc-mRNA (the cater component of the LNP formulation were cationic lipid, neutral lipid, structured lipid and polymer-conjugated lipid with a molar ratio of 49: 10: 39.5: 1.5, wherein the cationic lipid was listed in Table 1) and the formulation of Lipofectamine 3000 were added to the cell culture medium of a 96-well plate, and further cultivated for 24 hours. 10 μL of CCK-8 solution was then added to each well, and the culture plate was incubated in an incubator for 1 hour. The absorbance at 450 nm was measured by a microplate reader.

Structure (SMILES)	average radiation intensity, 6 h (BALB/C mice; 6 h)	average radiation intensity, 24 h (BALB/C mice; 24 h)	average radiation intensity, 48 h (BALB/C mice; 48 h)	average radiation intensity, 7 d (BALB/C mice; 7 d)	Relative light unit (RLU) (293T cells [1])	Multiples (YK-101) (293T cells [1])	Multiples (YK-107) (293T cells [1])	Multiples (YK-108) (293T cells [1])	Ratio relative to SM-102 (293T cells [1])	Cell survival rate (%) (293T cells [2])	fluorescence absorption value, times that of HHMA (293T cells [1])	fluorescence absorption value, times that of Lipofectamine 3000 (293T cells [1])	Fluc-mRNA expression signal intensity, times that of compound 21 (293T cells [1])	fluorescence absorption value, times that of compound 23 (293T cells [1])	cell survival rate lower than that of YK-101 (293T cells [2])	cell survival rate lower than that of YK-107 (293T cells [2])	cell survival rate lower than that of YK-108 (293T cells [2])	cell transfection activity, times that of YK-112 (293T cells [1])	cell transfection efficiency, times that of YK-118 (293T cells [1])	cell transfection efficiency, times that of YK-119 (293T cells [1])
CCCCCCCCCCCOC(=O)CCCN(CCO)CCCCCCC(=O)OCCC(CCCCCC)CCCCCC [YK-108, 3-hexylnonyl 7-(4-(undecyloxy)-4-oxobutyl)((2-hydroxyethyl)amino)heptanoate]	2017280	1406010	230360	14194	24660507 RLU	0.82	0.91	1.00	16.07	89.86%										
CCCCCCCCCCOC(=O)CCCN(CCCCCC(=O)OCCC(CCCCCC)CCCCCC)CCC(C)(C)O [YK-119, 3-hexylnonyl 6-(4-(decyloxy)-4-oxobutyl)((3-hydroxy-3-methylbutyl)amino)hexanoate]					8557 RLU				0.0056	80.27%	0.0042 times	0.0080 times	0.0062 times	0.0066 times	9.85%	10.18%	9.59%			
CCCCCCCCCCOC(=O)CCCN(CCCCCC(=O)OCCC(CCCCCC)CCCCCC)C[C@H](O)CO [YK-116, 3-hexylnonyl 6-(4-(decyloxy)-4-oxobutyl)(((S)-2,3-dihydroxypropyl)amino)hexanoate]					1321284 RLU	15.39	16.92	18.66	0.86	67.96%	0.65 times	1.23 times	0.95 times	1.02 times	22.16%	22.49%	21.90%			
CCCCCCC(CCCCCC)CCOC(=O)CCCCCN(CCO)CCCCCC(=O)OCCCSSCCCCC [YK-110]					271783 RLU	74.82	82.28	90.74	0.18	42.85%	0.13 times	0.25 times	0.20 times	0.21 times	40%	40%	40%			
CCCCCCCCCCOC(=O)CCCN(CCCCCC(=O)OCCC(CCCCCC)CCCCCC)CCC(C)O (stereo not drawn) [YK-118, 3-hexylnonyl 6-(4-(decyloxy)-4-oxobutyl)((3-hydroxybutyl)amino)hexanoate]					21310 RLU		1049.33	1157.23	0.0139	63.33%	0.0104 times	0.0199 times	0.0153 times	0.0165 times	26.79%	27.12%	26.53%			
CCCCCCCCC(CCCCCCCC)COC(=O)CCCCCN(CCO)CCCCCC(=O)OCCSCCCC [YK-113, 2-octyldecyl 6-(6-(2-(butylthio)ethoxy)-6-oxohexyl)((2-hydroxyethyl)amino)hexanoate]					151694 RLU	134.05		162.57	0.10	43.05%	0.07 times	0.14 times	0.11 times	0.12 times	47.07% and 40%	47.40% and 40%	46.81% and 40%	up to 75 times		
CCCCCCC(CCCCCC)CCOC(=O)CCCCCN(CCO)CCCCCC(=O)OCCSCCCC [YK-112, 3-hexylnonyl-6-(6-(2-(butylthio)ethoxy)-6-oxohexyl)((2-hydroxyethyl)amino)hexanoate]					2012 RLU				0.0013	9.82%	0.0010 times	0.0019 times	0.0014 times	0.0016 times	80.30% and 80%	80.63% and 80%	80.04% and 80%			
CCCCCCCCCCOC(=O)CCCN(CCCCCC(=O)OCCC(CCCCCC)CCCCCC)C[C@H](C)O [YK-117, 3-hexylnonyl 6-(4-(decyloxy)-4-oxobutyl)(((S)2-hydroxypropyl)amino)hexanoate]					695716 RLU	29.23	32.14	35.45	0.45	57.93%	0.34 times	0.65 times	0.50 times	0.54 times	32.19%	32.52%	31.93%		33 times	80 times

Source: patent US20260008746A1, “CATIONIC LIPID COMPOUND WITH HIGH EFFICIENCY, LOW TOXICITY AND STABLE EXPRESSION, AND COMPOSITION COMPRISNG SAME” (HANGZHOU TIANLONG PHARMACEUTICAL CO., LTD, priority 2023, published 2026)
